Experimental data taken from patent publication US12458605B2, “Lipid nanoparticle” (National University Corporation Hokkaido University, priority 2020, dated 2025).

Columns and labels:
[1] = Average particle size (ζ-Average) and PDI by dynamic light scattering (Zetasizer Nano ZSP); format: physicochemical
Summary of the method: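 Lipid nanoparticles dispersed in PBS(−) were sized by dynamic light scattering, giving the ζ-Average diameter and polydispersity index (PDI).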

[2] = siRNA/mRNA encapsulation rate by Ribogreen reagent (section IV); format: physicochemical; conditions: for % siRNA encapsulation: F7siRNA-loaded LNP, 50:10:38.5:1.5, N/P ratio 6; for % mRNA encapsulation: FlucmRNA-loaded LNP, 50:10:38.5:1.5
Summary of the method: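 LNPs diluted in TE buffer to 8 μg/mL nucleic acid for surface RNA, or to 1.2 μg/mL with 1% Triton X-100 for total RNA. RiboGreen fluorescence (ex 485/em 528 nm) quantified against a Triton-containing standard curve (0-2.5 μg/mL). Encapsulation % = (total − surface)/total × 100.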

[3] = test system: liver; experiment: In vivo Fluc activity of FlucmRNA-loaded LNP by in vivo imaging, liver; conditions: Balb/c mice, 6 hours; for Fluc Activity in liver: FlucmRNA-loaded LNP i.v. 0.1 mg mRNA/kg; for Fluc activity in the liver, compared with CL15F6: 0.1 mg mRNA/kg, versus LNP comprising CL15F6 (Table 7)
Summary of the method: (§1)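 Female Balb/c mice, 7 weeks old, received LNP i.v. at 0.1 mg mRNA/kg. At 6 h, luciferin was given via tail vein at 1.5 mg per mouse, and liver and spleen luminescence was imaged as Avg Radiance [p/s/cm2/sr] near 560 nm.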

[4] = test system: spleen; experiment: In vivo Fluc activity of FlucmRNA-loaded LNP by in vivo imaging, spleen; conditions: Balb/c mice, 6 hours; for Fluc activity in the spleen, compared with CL15F6 / Fluc activity in the spleen, compared with CL4F6: 0.1 mg mRNA/kg; for Fluc activity in the spleen, compared with CL15F6: versus LNP comprising CL15F6 (Table 7); for Fluc Activity in spleen: FlucmRNA-loaded LNP i.v. 0.1 mg mRNA/kg; for Fluc activity in the spleen, compared with CL4F6: versus LNP comprising CL4F6 (Tables 5 and 6)
Summary of the method: as §1

[5] = test system: F7; experiment: In vivo F7 knockdown, plasma F7 enzyme activity (BIOPHEN FVII), Balb/c mice; conditions: for F7 enzyme activity (Ratio using MC3 as 1) / F7 enzyme activity (%): i.v. 0.025 mg siRNA/kg, plasma at 24 hours; for F7 enzyme activity (Ratio using MC3 as 1): relative plasma F7 activity of MC3 LNP as 1; for F7 enzyme activity (%): untreated mice as 100%; for knockdown activity, compared with MC3: F7siRNA-loaded LNP, versus LNP comprising MC3
Summary of the method: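 Female Balb/c mice, 5 weeks old, received F7 siRNA lipid nanoparticles i.v. at 0.025 mg siRNA/kg; plasma F7 activity measured chromogenically (BIOPHEN FVII) 24 h later. Values are % of untreated mice, also expressed as a ratio to MC3-containing nanoparticles set at 1.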

[6] = Storage stability of FlucmRNA-loaded LNP at −80, 5, 25 and 40° C.; format: physicochemical; conditions: for period for which quality remained good, −80° C.: maximum storage period 1 week
Summary of the method: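 FlucmRNA-loaded LNPs held at −80, 5, 25 or 40° C; at each time point size, PDI and encapsulation measured. Quality deemed maintained while size stays within ±20 nm of preparation day, PDI ≤0.2 and encapsulation ≥80%; value is the period meeting all three.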

[7] = F7siRNA-loaded LNP, 50:10:38.5:1.5, N/P ratio 6
[8] = FlucmRNA-loaded LNP, 50:10:38.5:1.5
[9] = FlucmRNA-loaded LNP, lipid:DSPC:cholesterol:DMG-PEG2K 50:10:38.5:1.5

Row | SMILES | PDI [1, 7] | ζ-Average (nm) [1, 7] | PDI [1, 8] | ζ-Average (nm) [1, 9] | % siRNA encapsulation [2] | % mRNA encapsulation [2] | Fluc Activity in liver [3] | Fluc activity in the spleen, compared with CL15F6 [4] | Fluc Activity in spleen [4] | F7 enzyme activity (Ratio using MC3 as 1) [5] | period for which quality remained good, −80° C. [6] | period for which quality remained good, 5° C. ([6]; maximum storage period 5 weeks) | period for which quality remained good, 25° C. ([6]; maximum storage period 5 weeks) | period for which quality remained good, 40° C. (weeks) ([6]; maximum storage period 5 weeks) | F7 enzyme activity (%) [5] | quality at production (storage stability criteria) ([6]; criteria: PDI 0.2 or less, encapsulation 80% or more) | Fluc activity in the spleen, compared with CL4F6 [4] | period for which quality remained good, 40° C. (days) ([6]; maximum storage period 5 weeks) | Fluc activity in the liver, compared with CL15F6 [3] | knockdown activity, compared with MC3 [5]
1 | CCCCCCCC(CCCCC)C(=O)OCCCCCCC(O)(CCCCCCOC(=O)C(CCCCC)CCCCCCC)CCCCOC(=O)C1CCN(C)CC1 (centres unmarked) [CL15F 9-5] | 0.035 | 129.5 nm | 0.037 | 135.00 nm | 100.1% | 99.1% | 1.86E+06 Avg Radiance [p/s/cm2/sr] | higher Fluc activity | 5.77E+06 Avg Radiance [p/s/cm2/sr] | 1.11 | 1 week | 5 weeks | 5 weeks | 5 weeks | – | – | – | – | – | –
2 | CCCCCCCCCCCCCCC(C)C(=O)OCCCCCCC(O)(CCCCCCOC(=O)C(C)CCCCCCCCCCCCCC)CCCCN(CCC)CCC (centres unmarked) [CL4F 16-1] | 0.092 | 64.81 nm | 0.045 | 69.08 nm | 94.9% | 65.9% | 8.52E+06 Avg Radiance [p/s/cm2/sr] | – | 1.93E+06 Avg Radiance [p/s/cm2/sr] | – | – | – | – | – | 103.6% | Does not meet the criteria for “good” at production | – | – | – | –
3 | CCCCCCCCC(CC)C(=O)OCCCCCCC(O)(CCCCCCOC(=O)C(CC)CCCCCCCC)CCCCN(CCC)CCC (centres unmarked) [CL4F 10-2] | 0.024 | 115.60 nm | 0.068 | 93.60 nm | 99.6% | 98.6% | 3.02E+07 Avg Radiance [p/s/cm2/sr] | – | 6.40E+06 Avg Radiance [p/s/cm2/sr] | – | 0 week | 5 weeks | 1 weeks | – | 11.4% | – | higher Fluc activity | 0 day days | – | –
4 | CCCCCCCCCC(CCCCCCCCC)C(=O)OCCCCCCC(O)(CCCCCCOC(=O)C(CCCCCCCCC)CCCCCCCCC)CCCCN(CCC)CCC [CL4F 11-9] | 0.009 | 90.93 nm | 0.014 | 81.13 nm | 100.1% | 99.8% | 6.86E+07 Avg Radiance [p/s/cm2/sr] | – | 1.19E+06 Avg Radiance [p/s/cm2/sr] | – | 1 week | 5 weeks | 5 weeks | 5 weeks | 47.7% | – | – | – | – | –
5 | CCCCCCCCCC(CCCCC)C(=O)OCCCCCCC(O)(CCCCCCOC(=O)C(CCCCC)CCCCCCCCC)CCCCOC(=O)C1CCN(C)CC1 (centres unmarked) [CL15F 11-5] | 0.017 | 109.6 nm | 0.010 | 108.90 nm | 100.3% | 99.8% | 9.38E+06 Avg Radiance [p/s/cm2/sr] | – | 5.01E+06 Avg Radiance [p/s/cm2/sr] | 0.78 | 1 week | 5 weeks | 5 weeks | 5 weeks | – | – | – | – | higher Fluc activity | higher knockdown activity
6 | CCCCCC(CCCCC)C(=O)OCCCCCCC(O)(CCCCCCOC(=O)C(CCCCC)CCCCC)CCCCN(CCC)CCC [CL4F 7-5] | 0.021 | 120.20 nm | 0.057 | 109.80 nm | 100.1% | 99.9% | 4.56E+07 Avg Radiance [p/s/cm2/sr] | – | 1.47E+07 Avg Radiance [p/s/cm2/sr] | – | 1 week | 2 weeks | 5 weeks | 1 week weeks | 35.7% | – | higher Fluc activity | – | – | –
7 | CCCCCCCC(CCCCC)C(=O)OCCCCCCC(O)(CCCCCCOC(=O)C(CCCCC)CCCCCCC)CCCCN(CCC)CCC (centres unmarked) [CL4F 9-5] | 0.032 | 99.72 nm | 0.048 | 89.41 nm | 99.9% | 99.0% | 6.84E+07 Avg Radiance [p/s/cm2/sr] | – | 9.53E+06 Avg Radiance [p/s/cm2/sr] | 0.43 | 1 week | 5 weeks | 5 weeks | 5 weeks | – | – | higher Fluc activity | – | – | higher knockdown activity
8 | CCCCCCCC(CCCCCCC)C(=O)OCCCCCCC(O)(CCCCCCOC(=O)C(CCCCCCC)CCCCCCC)CCCCOC(=O)C1CCN(C)CC1 [CL15F 9-7] | 0.023 | 103.1 nm | 0.010 | 107.60 nm | 100.3% | 99.5% | 6.76E+06 Avg Radiance [p/s/cm2/sr] | – | 4.23E+06 Avg Radiance [p/s/cm2/sr] | 0.60 | 1 week | 5 weeks | 5 weeks | 5 weeks | – | – | – | – | higher Fluc activity | higher knockdown activity
9 | CCCCCCCCCC(CCCCCCC)C(=O)OCCCCCCC(O)(CCCCCCOC(=O)C(CCCCCCC)CCCCCCCCC)CCCCOC(=O)C1CCN(C)CC1 (centres unmarked) [CL15F 11-7] | 0.049 | 102.5 nm | 0.002 | 102.50 nm | 100.6% | 99.86% | 1.10E+07 Avg Radiance [p/s/cm2/sr] | higher Fluc activity | 7.13E+06 Avg Radiance [p/s/cm2/sr] | 0.85 | 1 week | 5 weeks | 5 weeks | 5 weeks | – | – | – | – | higher Fluc activity | higher knockdown activity
10 | CCCCCCCCCC(CCCCCC)C(=O)OCCCCCCC(O)(CCCCCCOC(=O)C(CCCCCC)CCCCCCCCC)CCCCOC(=O)C1CCN(C)CC1 (centres unmarked) [CL15F 11-6] | 0.025 | 101.2 nm | 0.007 | 106.50 nm | 100.3% | 99.75% | 9.09E+06 Avg Radiance [p/s/cm2/sr] | higher Fluc activity | 8.19E+06 Avg Radiance [p/s/cm2/sr] | 0.81 | 1 week | 5 weeks | 5 weeks | 5 weeks | – | – | – | – | higher Fluc activity | higher knockdown activity
11 | CCCCCCCCC(CCCCCCC)C(=O)OCCCCCCC(O)(CCCCCCOC(=O)C(CCCCCCC)CCCCCCCC)CCCCN(CCC)CCC (centres unmarked) [CL4F 10-7] | 0.013 | 89.34 nm | 0.039 | 79.68 nm | 100.1% | 99.8% | 1.19E+08 Avg Radiance [p/s/cm2/sr] | – | 2.03E+06 Avg Radiance [p/s/cm2/sr] | – | 1 week | 5 weeks | 5 weeks | 5 weeks | 4.1% | – | – | – | – | –
